From US10232012B2 (INDUSTRY-ACADEMIC COOPERATION FOUNDATION, YONSEI UNIVERSITY, priority 2016, dated 2019)
Like-named read-outs stand apart in the source and are kept apart here. Ends that are not written are not given here.

What was measured:
[1] = tested on: ScN2a cells
[2] = molecular target: PrP^SC in ScN2a cells (Mus musculus, UniProt P04925); type: cell-based; conditions: for anti-prion activity at 30 nM: pH 7.4
[3] = type: physicochemical; conditions: pH 3
[4] = type: physicochemical
[5] = in vitro; conditions: mouse, ScN2a cells, pH 7.4, cell survival rate

Chain of PrP^SC in ScN2a cells (P04925 23-230 limits assumed): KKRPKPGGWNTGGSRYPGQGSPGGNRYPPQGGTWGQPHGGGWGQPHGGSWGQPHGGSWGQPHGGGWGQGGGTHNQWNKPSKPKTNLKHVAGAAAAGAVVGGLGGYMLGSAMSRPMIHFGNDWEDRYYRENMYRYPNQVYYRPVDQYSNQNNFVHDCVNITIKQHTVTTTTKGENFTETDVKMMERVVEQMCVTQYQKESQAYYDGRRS

N=C(N)NCCC[C@H](NC(=O)CNC(=O)CCCCCN)C(=O)N[C@@H](CCCCN)C(=O)N[C@@H](CCCCN)C(=O)N[C@@H](CCCNC(=N)N)C(=O)N[C@@H](CCCNC(=N)N)C(=O)N[C@@H](CCC(N)=O)C(=O)N[C@@H](CCCNC(=N)N)C(=O)N[C@@H](CCCNC(=N)N)C(=O)N[C@@H](CCCNC(=N)N)C(=O)N1CCC[C@H]1C(=O)N1CCC[C@H]1C(=O)N[C@@H](CCC(N)=O)C(N)=O [Comparative Example 1, reference compound]
cytotoxicity [1]: remarkably low cytotoxicity

H-GRKKRRQRRRPPQ-GSGG-FKFEFKFEFKFE-NH2 [Example 1]
anti-prion activity (PK-resistant PrP^SC level by western blot) [2]: gradual decrease in the PrP^SC concentration as its concentration is increased | concentration at which anti-prion activity is exhibited [2]: ≥ 100 nM

H-RR-ahx-FKFEFKFEFKFE-NH2 [Example 2]
anti-prion activity (PK-resistant PrP^SC level by western blot) [2]: shows anti-prion activity, although weaker than that of the fusion peptide of Example 1

H-RRRRRRRRRRRRRR-GSGG-FKFEFKFEFKFE-NH2 [Example 4]
anti-prion activity at 30 nM [2]: remarkably high anti-prion activity

H-RRRRRRRRRRRRRRR-GSGG-FKFEFKFEFKFE-NH2 [Example 5]
anti-prion activity at 30 nM [2]: remarkably high anti-prion activity

RRRRRRRRRRRRGSGGFKFEFKFEFKFE-NH2 [Example 3]
diameter of vesicular nanostructure [3]: 20-90 nm | height of vesicular nanostructure, on average [3]: 1-20 nm | height of vesicular nanostructure, specifically [3]: 8-16 nm | width of vesicular nanostructure, on average [3]: 50-100 nm | width of vesicular nanostructure, specifically [3]: 70-90 nm | cytotoxicity [1]: significantly lower toxicity than the peptide of Comparative Example 3 | anti-prion activity (PK-resistant PrP^SC level by western blot) [2]: remarkably higher anti-prion activity than the peptide consisting only of arginine residues of the same number (R12) | anti-prion activity at 10 nM [2]: remarkably superior anti-prion activity | fold decrease of anti-prion activity compared to R12-β UNS [2]: ≥ 14.5 times | zeta potential difference, acidic condition (pH 2-5.5) versus neutral condition ([4]; pH 2): +14 to 18 mV | zeta potential ([4]; pH 3): +40 mV | zeta potential ([4]; pH 5): +38 mV | zeta potential ([4]; pH 7): +24 mV | zeta potential ([4]; pH 11): +30 mV | viability [5]: ≥ 70%

RRRRRRRRRRRRGSGGFKFEFKFEFKFE-NH2 [R12-β SPN]
cytotoxicity [1]: moderate cytotoxicity | anti-prion activity (PK-resistant PrP^SC level by western blot) [2]: comparable to that of the peptide of Example 1

RRRRRRRRRRRRGSGGFKFEFKFEFKFE-NH2 [R12-β UNS]
cytotoxicity at 10 μM ([1]; pH 7.4): low toxicity | anti-prion activity (PK-resistant PrP^SC level by western blot) [2]: comparable to that of the peptide Comparative Example 3 | fold higher anti-prion activity than R12-β SPN (fibrillar nanostructure) [2]: 14.5 times
